Test results from patent US20260345619A1 (Principia Biopharma Inc., priority 2023, published 2026).

Test: Loss of asthma control (LOAC) events, 12-week ICS/LABA withdrawal study
Assay type: in vivo, human
Conditions: for RD vs. Placebo / LOAC, number / OR vs. placebo: 400 mg BID
Description: The general construct of this 12-week Loss of Asthma Control (LOAC) study consisted of a 4-week standardized ICS/LABA background therapy stabilization phase, a 4or 5-week background therapy withdrawal phase and a 3- or 4-week no background therapy phase, followed by a 4-week post IMP treatment safety follow-up period at the beginning of which, pre-screening asthma controller medications are restarted. Participants had access to short-acting β-agonist (SABA) reliever medication at all times during the protocol.
The primary endpoint was the proportion of patients with LOAC. The key secondary endpoint for the study was change in pre-bronchodilator FEV1 from baseline at EOT.
The primary endpoint was proportion of participants with LOAC during the 12-week treatment period.
Note that if the number of participants in some regions was too low, these regions may have been pooled with other regions. This strategy also applied to all the rest of the analyses where region was one of the covariates.
To assess the consistency in treatment effects across different subgroup levels, subgroup analyses were to be performed for the primary efficacy endpoint with respect to age group, gender, region, and other factors.
Secondary endpoints included pre-bronchodilator FEV1 change from baseline at EOT, ACQ-5 score change from baseline, and AQLQ score change from baseline. Other secondary and exploratory endpoints are described in Table 2.

[1] = all others than low EOS and low FeNO
[2] = background ICS/LABA dose Medium
[3] = baseline IgA <Median (2600) IU/mL
[4] = baseline IgA ≥Median (2600) IU/mL
[5] = baseline IgE <Median (210.8) IU/mL
[6] = baseline IgE ≥Median (210.8) IU/mL
[7] = baseline percent predicted FEV1 <Median (68)
[8] = baseline percent predicted FEV1 ≥ Median (68)
[9] = baseline pre-BD FEV1 <Median (2.022) L
[10] = baseline pre-BD FEV1 ≥Median (2.022) L
[11] = blood eosinophil level 1 <0.15 (10^9/L)
[12] = blood eosinophil level 1 ≥0.15 (10^9/L)
[13] = blood eosinophil level 2 <0.3 (10^9/L)
[14] = blood eosinophil level 2 ≥0.3 (10^9/L)
[15] = 400 mg TID cohort, Eastern Europe, n = 43
[16] = 400 mg TID cohort, Latin America, n = 19

## CC(C)(C=C(C#N)C(=O)N1CCC[C@@H](n2nc(-c3ccc(Oc4ccccc4)cc3F)c3c(N)ncnc32)C1)N1CCN(C2COC2)CC1 (mixture of isomers) [rilzabrutinib, (R)-2-[3-[4-amino-3-(2-fluoro-4-phenoxy-phenyl)pyrazolo[3,4-d]pyrimidin-1-yl]piperidine-1-carbonyl]-4-methyl-4-[4-(oxetan-3-yl)piperazin-1-yl]pent-2-enenitrile]
Age at onset ≥18-<40 years
  RD vs. Placebo: −0.314
Age at onset ≥18 years
  LOAC, number: 7
  OR vs. placebo: 0.323
  RD vs. Placebo: −0.258
Age at onset ≥40 years
  LOAC, number: 3
  OR vs. placebo: 3.000
  RD vs. Placebo: 0.250
[1]
  LOAC, number: 12
  OR vs. placebo: 0.808
  RD vs. Placebo: −0.053
Atopic medical conditions: No
  LOAC, number: 4
  OR vs. placebo: 0.380
  RD vs. Placebo: −0.204
Atopic medical conditions: Yes
  LOAC, number: 8
  OR vs. placebo: 0.681
  RD vs. Placebo: −0.069
Background ICS/LABA dose High
  LOAC, number: 11
  OR vs. placebo: 0.737
  RD vs. Placebo: −0.075
[2]
  LOAC, number: 1
  RD vs. Placebo: −0.467
Baseline ACQ-5 >2
  OR vs. placebo: 0.475
Baseline ACQ-5 ≤2
  LOAC, number: 7
  OR vs. placebo: 0.651
  RD vs. Placebo: −0.098
Baseline FeNO level 1 <25 ppb
  LOAC, number: 3
  OR vs. placebo: 0.261
  RD vs. Placebo: −0.227
Baseline FeNO level 1 ≥25 ppb
  LOAC, number: 9
  OR vs. placebo: 0.946
  RD vs. Placebo: −0.007
Baseline FeNO level 2 <35 ppb
  LOAC, number: 8
  OR vs. placebo: 0.448
  RD vs. Placebo: −0.198
Baseline FeNO level 2 ≥35 ppb
  LOAC, number: 4
  OR vs. placebo: 0.800
  RD vs. Placebo: −0.053
[3]
  LOAC, number: 4
  OR vs. placebo: 0.205
  RD vs. Placebo: −0.365
[4]
  LOAC, number: 8
  OR vs. placebo: 1.633
  RD vs. Placebo: 0.122
Baseline IgE <100 IU/mL
  LOAC, number: 2
  OR vs. placebo: 0.412
  RD vs. Placebo: −0.220
[5]
  LOAC, number: 6
  OR vs. placebo: 0.744
  RD vs. Placebo: −0.053
Baseline IgE ≥100 IU/mL
  LOAC, number: 10
  OR vs. placebo: 0.652
  RD vs. Placebo: −0.092
[6]
  LOAC, number: 6
  OR vs. placebo: 0.604
  RD vs. Placebo: −0.124
[7]
  LOAC, number: 7
  OR vs. placebo: 0.700
  RD vs. Placebo: −0.088
[8]
  OR vs. placebo: 0.556
  RD vs. Placebo: −0.143
[9]
  LOAC, number: 7
  OR vs. placebo: 0.700
  RD vs. Placebo: −0.088
[10]
  OR vs. placebo: 0.556
  RD vs. Placebo: −0.143
[11]
  LOAC, number: 2
  OR vs. placebo: 0.527
  RD vs. Placebo: −0.135
[12]
  LOAC, number: 10
  OR vs. placebo: 0.737
  RD vs. Placebo: −0.077
[13]
  OR vs. placebo: 0.231
  RD vs. Placebo: −0.197
[14]
  LOAC, number: 7
  OR vs. placebo: 0.951
  RD vs. Placebo: −0.013
Low EOS (<0.15) and low FeNO (<25)
  LOAC, number: 0
Smoking history Former
  LOAC, number: 3
  OR vs. placebo: 3.000
  RD vs. Placebo: 0.250
Smoking history Never
  LOAC, number: 9
  OR vs. placebo: 0.474
  RD vs. Placebo: −0.179
[15]
  LOAC incidence, number of participants: 8
  LOAC incidence, percentage: (18.6)
400 mg TID cohort, Eastern Europe, 95% CI (0.187, 1.368)
  LOAC OR vs. placebo: 0.506
[16]
  LOAC incidence, number of participants: 4
  LOAC incidence, percentage: (21.1)
400 mg TID cohort, Latin America, 95% CI (0.166, 3.357)
  LOAC OR vs. placebo: 0.747
400 mg TID cohort, Latin America, 95% CI (−0.322, 0.217)
  LOAC RD vs. placebo: −0.053
